The record followed here is article PMC7026418, “The kinase polypharmacology landscape of clinical PARP inhibitors” (Scientific Reports, 2020).

Common to all, as to assay: biochemical
What all share (design): DiscoveRx KINOMEscan active site-directed competition binding; percent of control kinase bound to immobilised ligand

Assay [1] concerns the target T1, CDC2L1 (Homo sapiens, UniProt P21127).
T1 construct: gene CDK11B

In assay [2] the target is T2, p38-beta (Homo sapiens, UniProt Q15759).
T2 construct: gene MAPK11

For assay [3], the target named is MET(Y1235D) (Homo sapiens, UniProt P08581, Y1235D).
The target of assay [4] is T3, RIOK1 (Homo sapiens, UniProt Q9BRS2).
T3 sequence (Q9BRS2 1-568): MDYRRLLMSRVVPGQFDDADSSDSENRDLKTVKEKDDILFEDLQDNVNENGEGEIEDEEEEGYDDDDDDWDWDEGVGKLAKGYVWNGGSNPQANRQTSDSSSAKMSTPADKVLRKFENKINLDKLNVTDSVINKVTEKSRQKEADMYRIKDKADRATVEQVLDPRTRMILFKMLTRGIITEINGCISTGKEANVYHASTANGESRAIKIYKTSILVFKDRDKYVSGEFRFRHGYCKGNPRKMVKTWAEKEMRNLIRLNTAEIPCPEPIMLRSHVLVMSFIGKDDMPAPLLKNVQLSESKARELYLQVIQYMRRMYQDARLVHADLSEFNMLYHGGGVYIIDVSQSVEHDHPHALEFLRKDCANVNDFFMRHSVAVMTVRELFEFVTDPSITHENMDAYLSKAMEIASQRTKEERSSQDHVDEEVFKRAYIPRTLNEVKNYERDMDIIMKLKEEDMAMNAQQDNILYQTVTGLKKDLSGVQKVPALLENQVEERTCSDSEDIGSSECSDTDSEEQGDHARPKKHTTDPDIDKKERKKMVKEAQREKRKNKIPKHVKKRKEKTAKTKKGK

Assay [5] deals with FRK (Homo sapiens, UniProt P42685).
For assay [6], the target named is T4, TNNI3K (Homo sapiens, UniProt Q59H18).
T4 sequence (Q59H18 1-835): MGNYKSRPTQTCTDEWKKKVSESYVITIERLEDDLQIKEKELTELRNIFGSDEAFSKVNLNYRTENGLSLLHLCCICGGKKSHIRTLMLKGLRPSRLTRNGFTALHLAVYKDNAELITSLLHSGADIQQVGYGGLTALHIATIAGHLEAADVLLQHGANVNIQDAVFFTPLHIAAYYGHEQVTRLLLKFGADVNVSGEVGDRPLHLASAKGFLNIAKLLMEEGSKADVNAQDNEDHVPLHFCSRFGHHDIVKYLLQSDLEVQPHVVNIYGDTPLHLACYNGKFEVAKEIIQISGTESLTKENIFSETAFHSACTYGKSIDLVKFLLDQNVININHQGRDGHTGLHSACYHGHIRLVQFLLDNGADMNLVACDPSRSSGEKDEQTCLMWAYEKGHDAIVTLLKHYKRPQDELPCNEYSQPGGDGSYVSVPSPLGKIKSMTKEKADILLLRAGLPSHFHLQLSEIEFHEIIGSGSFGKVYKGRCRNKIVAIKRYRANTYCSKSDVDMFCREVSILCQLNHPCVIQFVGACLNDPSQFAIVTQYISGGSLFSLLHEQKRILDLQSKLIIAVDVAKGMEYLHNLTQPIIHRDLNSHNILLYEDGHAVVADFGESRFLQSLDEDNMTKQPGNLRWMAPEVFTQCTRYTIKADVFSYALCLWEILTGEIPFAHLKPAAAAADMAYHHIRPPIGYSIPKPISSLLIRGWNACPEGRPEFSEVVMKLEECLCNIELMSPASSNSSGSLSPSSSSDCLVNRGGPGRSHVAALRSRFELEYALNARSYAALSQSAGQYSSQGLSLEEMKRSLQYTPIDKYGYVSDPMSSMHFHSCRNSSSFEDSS

The target of assay [7] is TIE1 (Homo sapiens, UniProt P35590).
Assay [8] concerns the target CSF1R-autoinhibited (Homo sapiens, UniProt P07333).
Assay [9] deals with MTOR (Homo sapiens, UniProt P42345).
Assay [10] has as its target T5, LKB1 (Homo sapiens, UniProt Q15831).
T5 construct: gene STK11
T5 sequence (Q15831 1-433): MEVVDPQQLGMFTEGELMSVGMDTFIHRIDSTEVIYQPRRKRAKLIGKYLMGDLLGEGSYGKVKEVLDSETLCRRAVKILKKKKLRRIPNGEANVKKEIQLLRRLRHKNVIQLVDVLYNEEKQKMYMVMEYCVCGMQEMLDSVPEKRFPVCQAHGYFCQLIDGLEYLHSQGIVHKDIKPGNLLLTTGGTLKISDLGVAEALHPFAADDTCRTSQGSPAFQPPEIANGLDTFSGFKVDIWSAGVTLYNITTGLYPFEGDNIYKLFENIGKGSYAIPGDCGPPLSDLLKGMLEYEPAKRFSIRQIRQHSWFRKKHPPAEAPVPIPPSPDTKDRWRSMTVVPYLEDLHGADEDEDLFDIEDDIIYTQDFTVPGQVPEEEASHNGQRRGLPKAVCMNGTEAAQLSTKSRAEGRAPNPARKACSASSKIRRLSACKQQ

Assay [11] addresses PAK6 (Homo sapiens, UniProt Q9NQU5).
Where [12] appears, read: read-out: Niraparib (MK-4827) / %Ctrl @ 10000nM.
Setting [13] is: read-out: Olaparib / %Ctrl @ 10000nM.
The mark [14] stands for this setting: read-out: Rucaparib / %Ctrl @ 10000nM, binding competition, % of control.
Setting [15] is: read-out: Talazoparib (BMN 673) / %Ctrl @ 10000nM.

Like-named read-outs stand apart in the source and are kept apart here.

MET(Y1235D), sequence (P08581 whole entry Y1235D): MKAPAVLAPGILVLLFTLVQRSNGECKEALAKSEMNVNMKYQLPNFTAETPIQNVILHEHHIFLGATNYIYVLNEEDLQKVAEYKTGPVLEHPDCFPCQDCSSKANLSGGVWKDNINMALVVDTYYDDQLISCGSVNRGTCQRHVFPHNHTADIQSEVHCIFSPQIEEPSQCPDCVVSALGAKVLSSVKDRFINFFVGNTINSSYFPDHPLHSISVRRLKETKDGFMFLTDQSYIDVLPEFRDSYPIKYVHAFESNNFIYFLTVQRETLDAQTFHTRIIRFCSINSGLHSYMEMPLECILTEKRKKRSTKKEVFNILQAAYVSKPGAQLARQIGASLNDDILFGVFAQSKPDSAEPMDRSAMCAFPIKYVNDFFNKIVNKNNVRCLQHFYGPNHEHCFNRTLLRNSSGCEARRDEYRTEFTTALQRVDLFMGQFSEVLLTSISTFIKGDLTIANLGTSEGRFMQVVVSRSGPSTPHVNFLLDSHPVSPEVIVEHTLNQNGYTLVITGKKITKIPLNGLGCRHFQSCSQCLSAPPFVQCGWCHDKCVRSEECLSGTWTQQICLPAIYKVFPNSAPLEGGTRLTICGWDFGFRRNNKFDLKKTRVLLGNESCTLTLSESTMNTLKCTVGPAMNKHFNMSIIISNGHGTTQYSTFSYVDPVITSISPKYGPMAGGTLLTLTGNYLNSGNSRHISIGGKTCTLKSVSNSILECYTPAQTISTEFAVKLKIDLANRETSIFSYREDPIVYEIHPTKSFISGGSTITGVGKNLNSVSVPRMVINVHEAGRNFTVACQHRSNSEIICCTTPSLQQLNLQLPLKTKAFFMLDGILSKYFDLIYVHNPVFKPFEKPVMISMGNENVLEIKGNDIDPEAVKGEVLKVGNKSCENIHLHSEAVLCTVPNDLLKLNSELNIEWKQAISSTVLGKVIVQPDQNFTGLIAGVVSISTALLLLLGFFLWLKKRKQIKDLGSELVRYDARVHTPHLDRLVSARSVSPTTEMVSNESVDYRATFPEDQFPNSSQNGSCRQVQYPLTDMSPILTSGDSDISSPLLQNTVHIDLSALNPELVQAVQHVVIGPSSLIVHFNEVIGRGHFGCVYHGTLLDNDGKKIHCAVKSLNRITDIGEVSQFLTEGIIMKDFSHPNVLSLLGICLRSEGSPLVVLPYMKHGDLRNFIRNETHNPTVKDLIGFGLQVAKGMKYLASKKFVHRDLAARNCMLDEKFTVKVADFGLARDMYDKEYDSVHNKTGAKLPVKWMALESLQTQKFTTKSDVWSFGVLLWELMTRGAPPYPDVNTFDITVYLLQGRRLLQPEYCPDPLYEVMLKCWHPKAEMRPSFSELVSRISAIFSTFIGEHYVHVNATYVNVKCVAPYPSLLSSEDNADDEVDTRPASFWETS
T1 sequence (P21127 whole entry): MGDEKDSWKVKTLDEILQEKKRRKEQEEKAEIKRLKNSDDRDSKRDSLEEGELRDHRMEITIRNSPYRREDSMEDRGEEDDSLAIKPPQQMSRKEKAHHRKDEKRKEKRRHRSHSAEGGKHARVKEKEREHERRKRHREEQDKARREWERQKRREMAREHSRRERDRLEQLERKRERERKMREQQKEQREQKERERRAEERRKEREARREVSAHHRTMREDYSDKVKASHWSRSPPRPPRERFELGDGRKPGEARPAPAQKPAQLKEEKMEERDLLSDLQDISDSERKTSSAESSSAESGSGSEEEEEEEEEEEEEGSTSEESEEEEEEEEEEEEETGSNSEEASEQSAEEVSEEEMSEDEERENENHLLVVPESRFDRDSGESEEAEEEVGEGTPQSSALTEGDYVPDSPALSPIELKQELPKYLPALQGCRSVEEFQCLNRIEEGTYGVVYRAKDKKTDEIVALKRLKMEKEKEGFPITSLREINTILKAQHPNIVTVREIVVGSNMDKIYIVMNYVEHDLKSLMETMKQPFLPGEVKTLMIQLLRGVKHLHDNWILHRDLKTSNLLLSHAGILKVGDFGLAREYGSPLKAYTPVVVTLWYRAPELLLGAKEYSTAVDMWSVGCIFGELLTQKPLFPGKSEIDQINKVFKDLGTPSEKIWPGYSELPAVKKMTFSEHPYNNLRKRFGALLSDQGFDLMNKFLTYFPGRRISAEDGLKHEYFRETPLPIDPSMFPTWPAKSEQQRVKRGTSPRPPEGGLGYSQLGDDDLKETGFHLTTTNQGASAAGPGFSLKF
TIE1, sequence (P35590 whole entry): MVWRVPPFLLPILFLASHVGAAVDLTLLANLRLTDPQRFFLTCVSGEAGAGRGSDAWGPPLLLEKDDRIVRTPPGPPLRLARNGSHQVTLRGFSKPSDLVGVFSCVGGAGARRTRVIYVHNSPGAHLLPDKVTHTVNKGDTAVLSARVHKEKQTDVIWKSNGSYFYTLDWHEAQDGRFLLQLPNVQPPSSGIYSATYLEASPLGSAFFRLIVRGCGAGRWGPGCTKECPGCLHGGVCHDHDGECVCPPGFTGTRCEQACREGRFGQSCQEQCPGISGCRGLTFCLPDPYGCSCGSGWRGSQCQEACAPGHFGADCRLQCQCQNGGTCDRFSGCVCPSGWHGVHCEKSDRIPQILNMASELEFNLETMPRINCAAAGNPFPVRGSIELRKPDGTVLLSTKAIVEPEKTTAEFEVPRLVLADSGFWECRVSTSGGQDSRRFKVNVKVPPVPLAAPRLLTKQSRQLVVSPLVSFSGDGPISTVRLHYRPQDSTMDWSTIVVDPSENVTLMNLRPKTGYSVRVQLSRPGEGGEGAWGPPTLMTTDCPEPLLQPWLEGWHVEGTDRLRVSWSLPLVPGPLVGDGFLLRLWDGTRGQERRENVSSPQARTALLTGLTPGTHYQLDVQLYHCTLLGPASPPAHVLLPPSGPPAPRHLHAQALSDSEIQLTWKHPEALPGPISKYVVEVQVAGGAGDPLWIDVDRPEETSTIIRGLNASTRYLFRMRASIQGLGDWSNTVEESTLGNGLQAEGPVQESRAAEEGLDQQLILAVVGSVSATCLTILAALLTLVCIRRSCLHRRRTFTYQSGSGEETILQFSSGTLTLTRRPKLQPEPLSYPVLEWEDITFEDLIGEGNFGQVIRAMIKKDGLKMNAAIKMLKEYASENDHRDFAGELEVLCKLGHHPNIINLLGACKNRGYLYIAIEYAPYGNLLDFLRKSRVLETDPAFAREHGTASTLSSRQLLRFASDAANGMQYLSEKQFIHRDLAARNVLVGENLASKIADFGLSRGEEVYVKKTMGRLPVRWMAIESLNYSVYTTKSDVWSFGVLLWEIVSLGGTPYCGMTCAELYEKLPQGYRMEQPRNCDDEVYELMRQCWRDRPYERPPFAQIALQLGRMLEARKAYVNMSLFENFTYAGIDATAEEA
FRK, sequence (P42685 whole entry): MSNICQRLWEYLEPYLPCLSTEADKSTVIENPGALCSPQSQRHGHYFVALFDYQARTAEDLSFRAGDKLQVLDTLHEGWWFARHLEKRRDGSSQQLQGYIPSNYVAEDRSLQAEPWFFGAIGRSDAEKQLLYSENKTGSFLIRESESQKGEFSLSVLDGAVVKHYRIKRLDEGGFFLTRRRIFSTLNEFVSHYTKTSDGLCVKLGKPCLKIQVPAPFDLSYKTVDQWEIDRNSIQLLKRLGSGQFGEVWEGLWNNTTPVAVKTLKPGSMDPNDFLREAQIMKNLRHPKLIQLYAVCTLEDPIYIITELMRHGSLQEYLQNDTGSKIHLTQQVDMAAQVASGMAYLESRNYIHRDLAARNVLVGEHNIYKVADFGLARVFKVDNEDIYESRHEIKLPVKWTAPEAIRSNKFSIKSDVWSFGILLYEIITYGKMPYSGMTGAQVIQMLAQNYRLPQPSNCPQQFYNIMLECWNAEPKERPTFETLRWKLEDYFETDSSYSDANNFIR
PAK6, sequence (Q9NQU5 whole entry): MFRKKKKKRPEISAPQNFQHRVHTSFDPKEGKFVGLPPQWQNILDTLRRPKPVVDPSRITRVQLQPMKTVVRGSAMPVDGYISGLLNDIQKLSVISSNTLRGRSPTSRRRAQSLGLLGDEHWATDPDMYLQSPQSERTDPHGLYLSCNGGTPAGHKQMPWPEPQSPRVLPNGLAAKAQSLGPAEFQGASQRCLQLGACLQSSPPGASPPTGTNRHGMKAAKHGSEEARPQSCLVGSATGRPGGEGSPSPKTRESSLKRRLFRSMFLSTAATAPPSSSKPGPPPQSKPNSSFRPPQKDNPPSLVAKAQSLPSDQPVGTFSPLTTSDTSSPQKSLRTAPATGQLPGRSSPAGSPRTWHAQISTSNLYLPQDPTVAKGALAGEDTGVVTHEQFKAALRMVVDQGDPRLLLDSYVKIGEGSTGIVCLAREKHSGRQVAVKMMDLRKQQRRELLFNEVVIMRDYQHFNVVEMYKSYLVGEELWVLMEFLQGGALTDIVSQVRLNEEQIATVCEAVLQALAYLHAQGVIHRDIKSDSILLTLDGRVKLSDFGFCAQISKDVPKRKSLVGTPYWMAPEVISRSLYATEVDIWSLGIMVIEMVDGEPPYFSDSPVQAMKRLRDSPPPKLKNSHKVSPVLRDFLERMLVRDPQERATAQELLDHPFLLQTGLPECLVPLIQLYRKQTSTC
T2 sequence (Q15759 whole entry): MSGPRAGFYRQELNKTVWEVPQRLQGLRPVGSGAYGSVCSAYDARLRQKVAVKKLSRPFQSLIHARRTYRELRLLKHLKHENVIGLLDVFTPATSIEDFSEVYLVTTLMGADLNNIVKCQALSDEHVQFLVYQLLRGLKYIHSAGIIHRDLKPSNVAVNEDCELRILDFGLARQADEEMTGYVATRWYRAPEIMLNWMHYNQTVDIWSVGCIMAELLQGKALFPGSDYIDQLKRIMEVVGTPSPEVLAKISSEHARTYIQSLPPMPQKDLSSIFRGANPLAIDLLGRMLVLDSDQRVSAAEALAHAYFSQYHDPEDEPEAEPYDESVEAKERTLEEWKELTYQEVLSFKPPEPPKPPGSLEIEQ

For the compound `NC(=O)c1cccc2cn(-c3ccc([C@@H]4CCCNC4)cc3)nc12` [Niraparib], the percent of control binding at 10 µM was determined as 100% in [1] (setting [12]); 99% in [2] (setting [12]); 75% in [3] (setting [12]); 95% in assay [4] (setting [12]); 91% in assay [5] (setting [12]); 95% in assay [6] (setting [12]). Also, the percent of control binding at 10 µM in assay [7] (setting [12]) turned out to be 87%; in assay [8] (setting [12]), 81%; in assay [9] (setting [12]), 85%; in assay [10] (setting [12]), 100%; in [11] (setting [12]) it was 93%.
Consider `O=C(c1cc(Cc2n[nH]c(=O)c3ccccc23)ccc1F)N1CCN(C(=O)C2CC2)CC1` [Olaparib], for which the percent of control binding at 10 µM is 99% in assay [1] (setting [13]); 90% in [2] (setting [13]); 82% in assay [3] (setting [13]); 100% in assay [4] (setting [13]); 90% in [5] (setting [13]); 84% in [6] (setting [13]). For the same compound, the percent of control binding at 10 µM was found to be 96% in assay [7] (setting [13]); 95% in assay [8] (setting [13]); 94% in [9] (setting [13]); 90% in [10] (setting [13]); 87% in assay [11] (setting [13]).
As to `CNCc1ccc(-c2[nH]c3cc(F)cc4c3c2CCNC4=O)cc1` [Rucaparib], the percent of control binding at 10 µM in [1] (setting [14]) was 99%; in assay [2] (setting [14]), 93%; in assay [3] (setting [14]), 92%; in assay [4] (setting [14]) it was 100%; in [5] (setting [14]), 97%; in [6] (setting [14]), 92%. Also, the percent of control binding at 10 µM in assay [7] (setting [14]) amounted to 92%; in assay [8] (setting [14]) it was 99%; in [9] (setting [14]), 96%; in assay [10] (setting [14]), 91%; in [11] (setting [14]) it was 96%.
As for `Cn1ncnc1[C@H]1c2n[nH]c(=O)c3cc(F)cc(c23)N[C@@H]1c1ccc(F)cc1` [Talazoparib], the percent of control binding at 10 µM came out at 100% in assay [1] (setting [15]); 86% in assay [2] (setting [15]); 96% in assay [3] (setting [15]); 100% in [4] (setting [15]); 85% in assay [5] (setting [15]); 100% in assay [6] (setting [15]). Besides, the percent of control binding at 10 µM in assay [7] (setting [15]) is 100%; in assay [8] (setting [15]) it was 100%; in assay [9] (setting [15]), 35%; in assay [10] (setting [15]), 93%; in [11] (setting [15]), 90%.
